According to US7541367B2, “3-benzoimidazolyl-pyrazolopyridines useful in treating kinase disorders” (Janssen Pharmaceutica, N.V., priority 2005, dated 2009):
Several values for one entry are separate records, joined by “and”; a condition that tells them apart may be missing. Equal values may be shown once.

Legend:
CDK1 = target: T1, CDK1 (Homo sapiens, UniProt P06493); assay: CDK-1 kinase screening assay (33P-ATP FlashPlate); assay type: biochemical; settings: human CDK1 with cyclin B; 10 μM ATP; 1 hr at 30° C
T1 construct: purchased New England Biolabs, Beverly, Mass; 6020; host or cells: insect cells

HER2 = target: T2, HER2 (Homo sapiens, UniProt P04626); assay: HER2 kinase screening assay (33P-ATP FlashPlate); assay type: biochemical; settings: GST-HIS6 HER-2 aa 679 to 1255; 10 μM ATP; 1 hr at 30° C;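 further: Biotin-poly(GT) 4:1 peptide captured on streptavidin FlashPlate, 33P transfer from γ-ATP read by scintillation counting, lower incorporation means inhibition, 1% DMSO final, 100 µL reaction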
T2 construct: GST (Glutathione-S-Transferase) (N); HIS6 (N); thrombin cleavage site (N); purchased Proqinase, Freiburg, Germany

c-Src kinase = target: T3, c-Src kinase (Homo sapiens, UniProt P12931); assay: c-Src Kinase Assay; assay type: biochemical; settings: 5 μM ATP
T3 construct: purchased Upstate Biotechnology, Lake Placid, N.Y
Method: A mixture of a 10× kinase buffer (80 mM MOPS at pH 7.0, 2 mM EDTA and 100 mM Magnesium Chloride), ATP (5 μM final from a 10 mM stock), a Cdc2 peptide […] (100 μM final from a 2.5 mM stock), γ-^33P ATP (10 μCi/μL stock) and water (for a total of 20 μL/well) was added to each well of a Streptavidin Flashplate.
Test compound in 100% DMSO (0.5 μL) was added to the appropriate wells. Diluted c-Src kinase (human) (Accession Number SWISS-PROT P12931) (Upstate Biotechnology, Lake Placid, N.Y.) (diluted in a buffer consisting of 20 mM MOPS at pH 7.0, 1 mM EDTA, β-mercaptoethanol (0.1%), Brij-35 (0.01%), glycerol (5%), and 1 mg/mL bovine serum albumin) (2.5 μL) was added to the wells to initiate the reactions. The reaction plates were incubated at 30° C. for 40 min. The reaction was terminated by the addition of a 3% phosphoric acid solution (5 μL). The reaction product (10 μL) was spotted onto a P30 filtermat and washed for 5 minutes in phosphoric acid (75 mM). The wash sequence was repeated two more times, followed with one final wash in methanol. The plates were then dried, sealed and read on the TopCount scintillation counter after adding 30 μL scintillation fluid.
(§1) A maximum and minimum signal for the assay was determined on each plate. The percent inhibition of a test compound was calculated according to the formula: […]
For a series of test concentrations, the IC50 was derived by graphing percent inhibition against the log of the concentrations tested for a given compound with results shown in Table 2
(§2) For compounds with multiple values, each value represents a separate assay result.

Lyn kinase = target: T4, Lyn kinase (Homo sapiens, UniProt P07948); assay: Lyn Kinase Assay; assay type: biochemical; settings: 5 μM ATP
T4 construct: purchased Upstate Biotechnology, Lake Placid, N.Y
Method: Test compound in 100% DMSO (0.5 μL) was added to the appropriate wells. Diluted Lyn kinase (human) (Accession Number EMBL M16038) (Upstate Biotechnology, Lake Placid, N.Y.) (diluted in a buffer consisting of 50 mM Tris at pH 7.5, 0.1 mM EGTA, Sodium Vanadate (0.1 mM), β-mercaptoethanol (0.1%) and 1 mg/mL bovine serum albumin) (2.5 μL) was added to the wells to initiate the reactions.
The reaction plates were incubated at 30° C. for 40 min. The reaction was terminated by the addition of a 3% phosphoric acid solution (5 μL). The reaction product (10 μL) was spotted onto a P30 filtermat and washed for 5 minutes in phosphoric acid (75 mM). The wash sequence was repeated two more times, followed with one final wash in methanol. The plates were then dried, sealed and read on the TopCount scintillation counter after adding 30 μL scintillation fluid.
as §1
For a series of test concentrations, the IC50 was derived by graphing percent inhibition against the log of the concentrations tested for a given compound with results shown in Table 3
as §2

[1] = test system: HeLa cervical adenocarcinoma; assay: Cell Proliferation Inhibition Assay (14C-thymidine incorporation), HeLa; assay type: cell-based; settings: Homo sapiens, HeLa cells;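 further: test compound in DMSO added to cells seeded in scintillating 96-well plates, DMSO-only wells as control, uptake of methyl 14C-thymidine into new DNA counted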
A375 malignant melanoma = assay: Cell Proliferation Inhibition Assay (14C-thymidine incorporation), A375; assay type: cell-based; settings: Homo sapiens, A-375, A375 cells;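 further: proliferation measured by radiolabelled thymidine uptake into new DNA, counted in scintillating 96-well plates, compound-treated wells compared with DMSO-only control wells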
HCT-116 colon carcinoma = assay: Cell Proliferation Inhibition Assay (14C-thymidine incorporation), HCT-116; assay type: cell-based;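 further: proliferation measured as methyl 14C-thymidine uptake into new DNA, counted in 96-well scintillating microplates, compared with DMSO-only control wells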
VEGF-R2 = target: T5, VEGF-R2 (Rattus norvegicus, UniProt O08775); assay: VEGF-R2 kinase screening assay (33P-ATP FlashPlate); assay type: biochemical; settings: rat VEGF-R2 kinase domain; 10 μM ATP; 1 hr at 30° C;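 further: Read-out is ³³P incorporation from ³³P-γ-ATP into biotinylated peptide substrate captured on streptavidin FlashPlate, counted by scintillation, 1% DMSO final, inhibition scaled between per-plate maximum and minimum signals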
T5 construct: polyhistidine (N)

Aurora-A = target: T6, Aurora-A (Mus musculus, UniProt P97477); assay: Aurora-A kinase screening assay (33P-ATP FlashPlate); assay type: biochemical; settings: 10 μM ATP, 1 hr at 30° C;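 further: His-tagged mouse Aurora-A phosphorylating a biotinylated peptide captured on streptavidin plates, read as 33P uptake by scintillation counting, 1% DMSO, inhibition scaled between per-plate maximum and minimum signals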
T6 construct: polyhistidine (N)
T6 sequence (P97477 1-395): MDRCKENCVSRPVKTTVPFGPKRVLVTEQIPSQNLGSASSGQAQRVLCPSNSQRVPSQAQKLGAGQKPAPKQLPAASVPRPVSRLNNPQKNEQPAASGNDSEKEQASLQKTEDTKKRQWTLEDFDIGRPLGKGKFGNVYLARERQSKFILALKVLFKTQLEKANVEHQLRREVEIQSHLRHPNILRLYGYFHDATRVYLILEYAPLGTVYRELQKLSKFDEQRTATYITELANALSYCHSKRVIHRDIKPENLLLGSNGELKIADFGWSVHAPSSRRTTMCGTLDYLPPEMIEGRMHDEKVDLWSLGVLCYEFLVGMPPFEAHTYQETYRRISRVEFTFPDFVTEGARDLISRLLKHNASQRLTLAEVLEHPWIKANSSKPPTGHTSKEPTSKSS

RET = target: T7, RET (Homo sapiens, UniProt P07949); assay: RET kinase screening assay (33P-ATP FlashPlate); assay type: biochemical; settings: human RET kinase domain; 10 μM ATP; 1 hr at 30° C;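 further: biotinylated peptide substrate captured on streptavidin FlashPlate, 33P phosphate transfer read by scintillation counting, 1% DMSO, lower incorporation means inhibition, percent relative to per-plate maximum and minimum signals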
T7 construct: polyhistidine (N)
T7 sequence (P07949 658-1114 limits assumed): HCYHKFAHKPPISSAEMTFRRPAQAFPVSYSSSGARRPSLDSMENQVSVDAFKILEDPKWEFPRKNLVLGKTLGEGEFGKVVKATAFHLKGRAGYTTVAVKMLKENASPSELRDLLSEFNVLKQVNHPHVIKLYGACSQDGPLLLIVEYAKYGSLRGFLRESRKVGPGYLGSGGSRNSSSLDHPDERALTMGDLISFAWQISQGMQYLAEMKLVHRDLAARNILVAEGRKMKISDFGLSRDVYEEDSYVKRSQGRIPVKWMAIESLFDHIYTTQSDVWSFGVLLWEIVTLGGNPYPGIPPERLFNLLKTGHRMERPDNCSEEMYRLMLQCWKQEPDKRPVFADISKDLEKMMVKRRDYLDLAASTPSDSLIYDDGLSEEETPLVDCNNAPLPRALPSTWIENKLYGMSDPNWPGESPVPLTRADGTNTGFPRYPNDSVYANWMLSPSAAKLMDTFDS

[2] = Homo sapiens, HCT-116, HCT-116 cells

T3 sequence (P12931 whole entry): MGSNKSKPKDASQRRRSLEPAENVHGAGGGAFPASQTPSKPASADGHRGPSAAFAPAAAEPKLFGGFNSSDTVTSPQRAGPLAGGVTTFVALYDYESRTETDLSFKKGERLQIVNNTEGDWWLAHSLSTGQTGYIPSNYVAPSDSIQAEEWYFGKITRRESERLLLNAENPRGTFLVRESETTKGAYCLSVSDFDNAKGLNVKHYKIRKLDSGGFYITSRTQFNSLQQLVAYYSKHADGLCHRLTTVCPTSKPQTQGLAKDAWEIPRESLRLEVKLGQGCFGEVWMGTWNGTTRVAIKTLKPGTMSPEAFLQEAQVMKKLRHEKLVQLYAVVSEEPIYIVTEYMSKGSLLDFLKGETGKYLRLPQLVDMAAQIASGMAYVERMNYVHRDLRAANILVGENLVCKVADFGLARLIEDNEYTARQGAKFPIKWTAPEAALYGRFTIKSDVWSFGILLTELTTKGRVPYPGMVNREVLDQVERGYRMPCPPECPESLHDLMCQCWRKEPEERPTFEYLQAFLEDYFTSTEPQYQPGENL
T5 sequence (O08775 786-1343): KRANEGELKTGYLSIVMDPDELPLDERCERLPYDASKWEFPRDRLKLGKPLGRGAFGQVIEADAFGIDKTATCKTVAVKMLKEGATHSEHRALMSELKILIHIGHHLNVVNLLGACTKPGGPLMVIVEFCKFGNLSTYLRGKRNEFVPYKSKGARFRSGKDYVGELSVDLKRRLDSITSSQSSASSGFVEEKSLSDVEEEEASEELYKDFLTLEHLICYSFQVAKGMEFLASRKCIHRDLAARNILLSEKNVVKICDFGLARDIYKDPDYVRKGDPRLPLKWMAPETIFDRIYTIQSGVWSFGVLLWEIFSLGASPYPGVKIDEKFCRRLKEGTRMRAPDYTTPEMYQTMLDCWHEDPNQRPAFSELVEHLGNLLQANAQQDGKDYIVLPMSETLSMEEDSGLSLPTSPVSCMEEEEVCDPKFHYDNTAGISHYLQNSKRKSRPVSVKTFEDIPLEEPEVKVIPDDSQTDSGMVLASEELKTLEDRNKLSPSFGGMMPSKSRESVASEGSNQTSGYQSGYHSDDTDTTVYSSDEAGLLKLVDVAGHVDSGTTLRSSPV
T2 sequence (P04626 679-1255): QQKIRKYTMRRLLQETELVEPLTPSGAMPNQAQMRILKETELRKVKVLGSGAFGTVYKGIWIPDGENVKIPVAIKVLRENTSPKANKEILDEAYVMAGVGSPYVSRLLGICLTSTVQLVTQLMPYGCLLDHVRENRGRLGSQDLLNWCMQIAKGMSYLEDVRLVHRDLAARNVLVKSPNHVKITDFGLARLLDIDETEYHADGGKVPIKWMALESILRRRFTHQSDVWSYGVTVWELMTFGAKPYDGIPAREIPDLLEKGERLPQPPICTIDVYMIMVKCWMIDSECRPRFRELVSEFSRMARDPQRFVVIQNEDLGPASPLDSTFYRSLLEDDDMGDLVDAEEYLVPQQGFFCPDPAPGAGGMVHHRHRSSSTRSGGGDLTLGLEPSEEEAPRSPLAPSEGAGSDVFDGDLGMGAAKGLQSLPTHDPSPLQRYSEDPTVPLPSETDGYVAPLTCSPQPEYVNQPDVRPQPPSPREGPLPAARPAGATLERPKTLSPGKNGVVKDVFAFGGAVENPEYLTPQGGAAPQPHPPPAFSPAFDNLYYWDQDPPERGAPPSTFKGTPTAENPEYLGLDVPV
T1 sequence (P06493 whole entry): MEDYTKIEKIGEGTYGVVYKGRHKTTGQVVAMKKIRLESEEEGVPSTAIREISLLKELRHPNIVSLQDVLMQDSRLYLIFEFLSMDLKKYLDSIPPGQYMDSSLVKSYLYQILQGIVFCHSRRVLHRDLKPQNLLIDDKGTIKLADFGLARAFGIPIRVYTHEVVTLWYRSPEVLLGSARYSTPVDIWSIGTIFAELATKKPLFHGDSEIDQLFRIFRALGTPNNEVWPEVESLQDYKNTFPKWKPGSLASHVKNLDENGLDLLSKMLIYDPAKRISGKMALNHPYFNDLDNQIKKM
T1 sequence (P14635 whole entry partner): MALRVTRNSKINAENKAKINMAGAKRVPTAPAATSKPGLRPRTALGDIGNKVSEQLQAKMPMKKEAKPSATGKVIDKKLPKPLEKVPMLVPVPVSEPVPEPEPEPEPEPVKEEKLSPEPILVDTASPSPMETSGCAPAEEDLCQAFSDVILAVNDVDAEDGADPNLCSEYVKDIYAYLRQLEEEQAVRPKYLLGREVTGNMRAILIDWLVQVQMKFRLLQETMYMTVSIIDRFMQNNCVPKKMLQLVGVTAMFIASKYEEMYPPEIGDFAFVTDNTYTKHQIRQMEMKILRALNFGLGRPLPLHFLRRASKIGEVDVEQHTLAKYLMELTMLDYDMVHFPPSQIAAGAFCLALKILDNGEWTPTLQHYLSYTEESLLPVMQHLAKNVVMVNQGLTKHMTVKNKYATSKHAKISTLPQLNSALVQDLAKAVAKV
T4 sequence (P07948 whole entry): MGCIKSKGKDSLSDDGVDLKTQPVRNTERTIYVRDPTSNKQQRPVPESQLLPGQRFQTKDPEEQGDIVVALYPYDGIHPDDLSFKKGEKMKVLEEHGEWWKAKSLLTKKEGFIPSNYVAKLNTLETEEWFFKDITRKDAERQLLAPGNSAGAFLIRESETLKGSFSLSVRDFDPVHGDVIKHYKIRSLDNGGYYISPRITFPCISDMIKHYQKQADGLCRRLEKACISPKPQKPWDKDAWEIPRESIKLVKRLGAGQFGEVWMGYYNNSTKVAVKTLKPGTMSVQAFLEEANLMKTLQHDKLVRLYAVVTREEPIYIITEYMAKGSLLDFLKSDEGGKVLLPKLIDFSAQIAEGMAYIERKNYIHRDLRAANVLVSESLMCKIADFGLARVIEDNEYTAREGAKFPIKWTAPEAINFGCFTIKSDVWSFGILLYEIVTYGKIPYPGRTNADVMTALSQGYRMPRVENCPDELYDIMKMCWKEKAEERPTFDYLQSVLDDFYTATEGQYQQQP

IC50 (CDK1) | IC50 (HER2) [µM] | IC50 (c-Src kinase) [µM] | IC50 (Lyn kinase) [µM] | IC50 (A375 malignant melanoma) [µM] | IC50 (VEGF-R2) | IC50 (Aurora-A) | IC50 (RET) [µM] | IC50 ([1]; HeLa) [µM] | IC50 (HCT-116 colon carcinoma; [2]) [µM] | IC50 (HCT-116 colon carcinoma; HCT-116 cells) [µM] | Compound | IC50 [1] [µM] | IC50 (HCT-116 colon carcinoma; Homo sapiens, HCT-116 cells) [µM]
0.00855 µM | > 100 | 0.00282 | 0.005 | 0.297 | 1.08 µM | 0.0415 µM |  | 0.401 | 0.376 |  | c1ccc2c(-c3cnc4[nH]nc(-c5nc6cc(N7CCOCC7)ccc6[nH]5)c4c3)cncc2c1 [Cpd 51, 4-[3-(5-morpholin-4-yl-1H-benzoimidazol-2-yl)-1H-pyrazolo[3,4-b]pyridin-5-yl]-isoquinoline] |  | 
0.177 µM and 0.343 µM | > 100 | 0.143 | 0.578 |  | 1.88 µM and 1.57 µM | 3.26 µM and 4.64 µM |  |  | 0.0336 | 0.0635 | COCc1cccc2[nH]c(-c3n[nH]c4ncc(-c5cncc(CN6CCOCC6)c5)cc34)nc12 [Cpd 54, 3-(4-methoxymethyl-1H-benzoimidazol-2-yl)-5-(5-morpholin-4-ylmethyl-pyridin-3-yl)-1H-pyrazolo[3,4-b]pyridine] |  | 
0.124 µM | > 100 | 0.143 | 0.578 | 0.33 | 1.6 µM | 3.75 µM |  | 1.23 | 0.186 |  | COCc1cccc2[nH]c(-c3n[nH]c4ncc(-c5cncc(CN(C)C)c5)cc34)nc12 [Cpd 55, {5-[3-(4-methoxymethyl-1H-benzoimidazol-2-yl)-1H-pyrazolo[3,4-b]pyridin-5-yl]-pyridin-3-ylmethyl}-dimethyl-amine] |  | 
0.00767 µM | 1.49 | 0.00663 | 0.00243 | 1.06 | 0.0734 µM | 0.263 µM |  | 1.45 | 1.5 |  | CC(C)NCc1cncc(-c2cnc3[nH]nc(-c4nc5cc(N6CCN(C)CC6)ccc5[nH]4)c3c2)c1 [Cpd 83, isopropyl-(5-{3-[5-(4-methyl-piperazin-1-yl)-1H-benzoimidazol-2-yl]-1H-pyrazolo[3,4-b]pyridin-5-yl}-pyridin-3-ylmethyl)-amine] |  | 
0.00274 µM |  | 0.0567 | 0.0694 | 0.371 | 0.316 µM | 0.279 µM |  | 0.418 | 0.299 |  | COc1ccc2nc(-c3n[nH]c4ncc(-c5cccnc5)cc34)[nH]c2c1 [Cpd 90, 3-(6-methoxy-1H-benzoimidazol-2-yl)-5-pyridin-3-yl-1H-pyrazolo[3,4-b]pyridine] |  | 

More lines, now with the values behind:

Compound | IC50 (CDK1) | IC50 (HER2) [µM] | IC50 (c-Src kinase) [µM] | IC50 (Lyn kinase) [µM] | IC50 (A375 malignant melanoma) [µM] | IC50 (VEGF-R2) | IC50 (Aurora-A) | IC50 (RET) [µM] | IC50 ([1]; HeLa) [µM] | IC50 (HCT-116 colon carcinoma; [2]) [µM] | IC50 (HCT-116 colon carcinoma; HCT-116 cells) [µM] | IC50 [1] [µM] | IC50 (HCT-116 colon carcinoma; Homo sapiens, HCT-116 cells) [µM]
CN1CCN(c2ccc3[nH]c(-c4n[nH]c5ncc(-c6cncc7ccccc67)cc45)nc3c2)CC1 [Cpd 31, 4-{3-[5-(4-methyl-piperazin-1-yl)-1H-benzoimidazol-2-yl]-1H-pyrazolo[3,4-b]pyridin-5-yl}-isoquinoline] | 0.0136 µM | 6.51 | 0.00421 | 0.00387 | 0.165 |  |  |  |  |  |  | 0.455 | 0.355
COCc1cccc2[nH]c(-c3nn(C)c4ncc(-c5cncc6ccccc56)cc34)nc12 [Cpd 33, 4-[3-(4-methoxymethyl-1H-benzoimidazol-2-yl)-1-methyl-1H-pyrazolo[3,4-b]pyridin-5-yl]-isoquinoline] | 0.123 µM | > 100 | 1.17 | 1.14 | 0.256 | > 100 µM | ~100 µM | > 100 | 1.18 | 0.203 |  |  | 
COCc1cccc2[nH]c(-c3n[nH]c4ncc(-c5cncc(CNC(C)C)c5)cc34)nc12 [Cpd 43, isopropyl-{5-[3-(4-methoxymethyl-1H-benzoimidazol-2-yl)-1H-pyrazolo[3,4-b]pyridin-5-yl]-pyridin-3-ylmethyl}-amine] | 0.0291 µM | > 10 | 0.836 | 0.132 | 0.166 | 0.683 µM | 6.58 µM | 2.23 | 0.18 | 0.131 |  |  | 
COCc1cccc2[nH]c(-c3n[nH]c4ncc(-c5cncc(CO)c5)cc34)nc12 [Cpd 44, {5-[3-(4-methoxymethyl-1H-benzoimidazol-2-yl)-1H-pyrazolo[3,4-b]pyridin-5-yl]-pyridin-3-yl}-methanol] | 0.0889 µM | > 100 | 0.288 | 0.379 | 0.357 | 0.341 µM | > 1 µM | ~10 | 0.771 | 0.128 |  |  | 
O=C(NC1CC1)c1cccc2[nH]c(-c3n[nH]c4ncc(-c5cncc6ccccc56)cc34)nc12 [Cpd 47, 2-(5-isoquinolin-4-yl-1H-pyrazolo[3,4-b]pyridin-3-yl)-1H-benzoimidazole-4-carboxylic acid cyclopropylamide] | 0.00159 µM | ~10 | 0.000635 | 0.00228 | 0.0129 | 0.149 µM | 0.0572 µM |  | 0.0122 | 0.0313 |  |  | 
CNCc1cncc(-c2cnc3[nH]nc(-c4nc5cc(N6CCN(C)CC6)ccc5[nH]4)c3c2)c1 [Cpd 81, methyl-(5-{3-[5-(4-methyl-piperazin-1-yl)-1H-benzoimidazol-2-yl]-1H-pyrazolo[3,4-b]pyridin-5-yl}-pyridin-3-ylmethyl)-amine] | 0.00304 µM | 0.715 | 0.225 | 0.17 | 0.768 | 0.0359 µM | 0.173 µM |  |  |  |  | 0.444 | 0.6
CNCc1cncc(-c2cnc3[nH]nc(-c4nc5ccc(OC)cc5[nH]4)c3c2)c1 [Cpd 97, {5-[3-(6-methoxy-1H-benzoimidazol-2-yl)-1H-pyrazolo[3,4-b]pyridin-5-yl]-pyridin-3-ylmethyl}-methyl-amine] | 0.0009 µM | 1.45 | 0.0164 | 0.00429 | 0.164 |  |  |  |  |  |  | 0.0614 | 0.0615
